Laboratory results taken from publication PMC9356065, “Novel psoralen derivatives as anti-breast cancer agents and their light-activated cytotoxicity against HER2 positive breast cancer cells” (Scientific Reports, 2022).
Where a name gives a salt, the structure may show the parent alone. Read-outs that look alike come from different tables or passages of the source.

What was measured:
MCF-7 = details: Fig. 1d; cited from earlier work
MDA-MB-231 [1] = test system: MDA-MB-231; set-up: method as in doi:10.1007/s00044-014-1312-6; details: previously reported; cited from earlier work
T47-D = experiment: MTT cytotoxicity, 48 h, without UVA; assay type: cell-based, human; details: for IC50: hormone-dependent breast cancer, read-out: Cytotoxic activity T47-D IC50; for Selectivity Index (SI): SI = IC50 for MRC-5/IC50 for T47-D
Description: (§1) Additionally, the cytotoxicity towards normal cells, human embryonal lung fibroblast cell MRC-5 was also assessed.
(§2) MDA-MB-231 (triple-negative breast cancer) was obtained from M.D. Anderson Cancer Center, Houston, TX, USA). T47-D (hormone-dependent breast carcinoma), SK-BR-3 (human HER2+ breast cancer), and MRC-5 (normal embryonic lung fibroblast) were obtained from the American Type Culture Collection (ATCC, Manassas, VA, USA).
(§3) The cytotoxic effect of tested compounds was evaluated in two breast cancer cell lines, MDA-MB-231 and T47-D. Number of survival cells after exposure to tested compounds for 48 h was determined by MTT assay, as previously described.

MDA-MB-231 [2] = experiment: Dark and light-activated (UVA) cytotoxicity, MTT; assay type: cell-based; details: Homo sapiens, dark, HER2− breast cancer
MDA-MB-231 [3] = experiment: Dark and light-activated (UVA) cytotoxicity, MTT; assay type: cell-based; details: Homo sapiens, MDA-MB-231, light or radiation study; irradiation with UVA (2.0 J cm^−2); HER2− breast cancer
Description: (§4) The selected compounds were screened for their IC50 values against both HER2+ breast cancer (SK-BR-3), and HER2− breast cancer (MDA-MB-231) in both dark and light-activated conditions (Table 2). Additionally, a negative control study was also performed with SK-BR-3 and MDA-MB-231 cells in the absence of tested compound under UVA irradiation (See Fig S7., Supporting Information).
(§5) SK-BR-3 and MDA-MB-231 cells were seeded into 96-well cell culture plates at 5 × 10^3 cells/well and incubated for 24 h at 37 °C under 5% CO2. After that, the cells were treated with 50 μM of psoralen derivatives in DMEM with 10% FBS and the cells were continued incubation for another 4 h. After incubation, the cells were washed with PBS (3 times) and then irradiated by a 365 nm lamp with the light intensity of 2.0 J cm^−2 for 12.5 min before re-incubation for another 72 h. After incubation, the cell was treated with methylthiazolyldiphenyl-tetrazolium bromide (MTT reagent 200 μL, 0.5 mg mL^−1, Sigma-Aldrich) for 2 h. After reagent removal, DMSO was added to dissolve the formazan product and the cell viabilities were determined through UV–Vis absorption of the resulting formazan at wavelength 560 nm using a microplate reader (BMG Labtech/SPECTROstar Nano). The cell morphology images were captured by using a light microscope (Microscope Nikon, inverted digital) at 20X magnification prior to treating with MTT reagent.

SK-BR-3 [4] = experiment: Dark and light-activated (UVA) cytotoxicity, MTT; assay type: cell-based; details: Homo sapiens, dark, HER2+ breast cancer
MDA-MB-231 [5] = experiment: MTT cytotoxicity, 48 h, without UVA; assay type: cell-based; details: Homo sapiens, MDA-MB-231, light or radiation study; for IC50: hormone-independent breast cancer, read-out: Cytotoxic activity MDA-MB-231 IC50
Description: as §2, §3

SK-BR-3 [6] = experiment: Dark and light-activated (UVA) cytotoxicity, MTT; assay type: cell-based, human; details: for IC50: Homo sapiens, SK-BR-3, light or radiation study, irradiation with UVA (2.0 J cm^−2), HER2+ breast cancer
Description: as §4, §5

[7] = MTT cytotoxicity towards normal cells, 48 h; assay type: cell-based; details: MRC-5 cells (normal embryonic lung fibroblasts), human embryonal lung fibroblast cell, without UVA, read-out: Cytotoxic activity MRC-5 IC50
Description: as §1, §2, §3

3T3 = test system: 3T3; set-up: method as in PMID 32815004, PMID 20693013; details: cited from earlier work
SK-BR-3 cells = experiment: Cell morphology by light microscope; assay type: cell-based, human; details: 48 h
Description: as §5, with “After incubation, the cells were washed with PBS (3 times) and then irradiated by a 365 nm lamp with the light intensity of 2.0 J cm^−2 for 12.5 min before re-incubation for another 72 h.” left out

[8] = test system: estrogen receptor in MCF-7 breast cancer cells; set-up: method as in PMID 23053665; details: MCF-7 breast cancer cells and tamoxifen-resistant clone; cited from earlier work
[9] = test system: ERα activity in MCF-7 cells; set-up: method as in PMID 31673107; details: read-out: IC50 antagonism of ERα activity in MCF-7 cells; cited from earlier work
[10] = test system: circulating estrogen levels; set-up: method as in PMID 10098905; details: female rats, dose-dependent; cited from earlier work
[11] = Scavenging of diphenyl-picryl-hydrazyl radicals (DPPH); details: screening concentration 250 µM
Source text: 1. Chemoprevention activity

[12] = Inhibition of superoxide radical formation by xanthine/xanthine oxidase (XXO); assay type: biochemical; details: screening concentration 500 µM
Source text: 1. […]

aromatase (CYP19) = target: T1, aromatase (CYP19) (Homo sapiens, UniProt P11511); experiment: Inhibition of aromatase (AIA); assay type: biochemical; details: at 12.5 µM; I = %inhibition lower than 50%; read-out: Aromatase inhibitory activity %Inhibition
T1 sequence (P11511 1-503): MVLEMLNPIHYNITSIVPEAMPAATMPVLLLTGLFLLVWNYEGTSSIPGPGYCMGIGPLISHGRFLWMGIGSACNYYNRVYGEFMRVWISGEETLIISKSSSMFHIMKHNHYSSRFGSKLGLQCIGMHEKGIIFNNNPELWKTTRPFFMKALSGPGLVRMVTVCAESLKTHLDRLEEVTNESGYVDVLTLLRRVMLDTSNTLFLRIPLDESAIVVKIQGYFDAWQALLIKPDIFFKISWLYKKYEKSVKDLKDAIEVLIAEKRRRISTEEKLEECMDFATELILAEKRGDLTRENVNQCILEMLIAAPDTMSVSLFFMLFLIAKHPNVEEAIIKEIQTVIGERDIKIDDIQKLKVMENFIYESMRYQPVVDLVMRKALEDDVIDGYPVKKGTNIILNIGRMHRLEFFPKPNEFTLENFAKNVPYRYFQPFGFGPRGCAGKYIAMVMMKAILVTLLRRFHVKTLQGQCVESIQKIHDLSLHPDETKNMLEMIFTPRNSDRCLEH
Description: Estrogens are the critical risk factor for breast cancer initiation and progression and the aromatase enzyme involves in the final step conversion of androgens to estrogens[21],[22]. […] In this study, the synthesized psoralen derivatives were also tested for aromatase inhibitory activity (AIA) which is considered to be one of chemopreventive mechanisms for hormone dependent breast cancer.
Inhibition of the aromatase was performed using the method designed by Stresser et al.[39].

[13] = test system: differentiated HL-60 cells; experiment: Inhibition of TPA-induced superoxide anion radical generation (HL-60 Antioxidant); assay type: cell-based, human; details: Homo sapiens, HL-60; screening concentration 100 µM; read-out: HL-60 Antiox. %Inh
Source text: Inhibition of 12-O-tetradecanoylphorbol-13-acetate (TPA)-induced superoxide anion radical generation in differentiated HL-60 cells (HL-60 Antioxidant) TPA-induced superoxide anion radical formation was detected in differentiated HL-60 cells by photometric determination of cytochrome c reduction as previously described by Gerhäuser et al., 2003.ii Superoxide dismutase (SOD;15U) was a positive control. […]

[14] = Homo sapiens, T47D, light or radiation study, 48 h, without UVA

COc1c2occc2c(NC(=O)c2cccc3ccccc23)c2ccc(=O)oc12 [VIb]
IC50 (MCF-7) (MCF-7): Inactive
IC50 (MDA-MB-231 [1]): 100 µM

CS(=O)(=O)CCNCc1ccc(-c2ccc3ncnc(Nc4ccc(OCc5cccc(F)c5)c(Cl)c4)c3c2)o1 [Lapatinib, reference compound]
IC50 (T47-D; [14]): 9.78 ± 0.46 µM
Selectivity Index (SI) (T47-D): 5.0
IC50 (MDA-MB-231 [2]): 73 ± 2.53 µM
IC50 (MDA-MB-231 [3]): 8.6 ± 0.82 µM
IC50 (SK-BR-3 [4]): 25.3 ± 0.99 µM
IC50 (MDA-MB-231 [5]): 53.37 ± 0.31 µM
IC50 (SK-BR-3 [6]): 0.16 ± 0.03 µM
IC50 at 48 h [7]: 48.8 ± 9.45 µM
phototoxic potential (3T3 NRU assay) (3T3): phototoxic potential
morphology of SK-BR-3 cells under light activation (SK-BR-3 cells; UVA 2.0 J cm^−2): morphological changes indicating apoptosis
morphology of SK-BR-3 cells under dark condition (SK-BR-3 cells; dark): morphological changes indicating apoptosis

CC/C(=C(\c1ccccc1)c1ccc(OCCN(C)C)cc1)c1ccccc1 [Tamoxifen citrate, reference compound]
IC50 (T47-D; [14]): 20.9 ± 1.31 µM
IC50 (MDA-MB-231 [5]): 66 ± 2.48 µM
IC50 at 48 h [7]: 67.6 ± 10.5 µM

COc1c2ccoc2cc2oc(=O)ccc12 [bergapten]
levels of estrogen receptor [8]: reduced
IC50 [9]: 1.2 µM
circulating estrogen levels [10]: significantly reduced

COc1c2occc2cc2ccc(=O)oc12 [8-MOP, 8-methoxypsoralen, reference compound]
inhibition at 50 µg/mL (T47-D; Homo sapiens, T47D, light or radiation study, 48 h, without UVA, I = %inhibition lower than 50%, read-out: Cytotoxic activity T47-D %Inhibition): 16%
IC50 (MDA-MB-231 [2]): > 100 µM
IC50 (MDA-MB-231 [3]): > 100 µM
IC50 (SK-BR-3 [4]): > 100 µM
circulating estrogen levels [10]: significantly reduced
inhibition at 50 µg/mL (MDA-MB-231 [5]; I = %inhibition lower than 50%, read-out: Cytotoxic activity MDA-MB-231 %Inhibition): 6%
dark and light-activated cytotoxicity against SK-BR-3 (%viability screening) (SK-BR-3 [6]; 50 µM, absence and presence of UVA (2.0 J cm^−2), Fig. 3): little to no activity
IC50 (SK-BR-3 [6]): 24.7 ± 3.02 µM

COc1c2occc2c(NC(=O)C23CC4CC(CC(C4)C2)C3)c2ccc(=O)oc12 [3n, (3r,5r,7r)-N-(9-Methoxy-7-oxo-7H-furo[3,2-g]chromen-4-yl)adamantane-1-carboxamide]
DPPH %Inh [11]: 1%
XXO %Inh [12]: 47%
IC50 (T47-D; [14]): 43.06 ± 0.09 µM
Selectivity Index (SI) (T47-D): > 3.0
IC50 (MCF-7): 0.48 µM
melting point: 240 to 242 °C
inhibition at 12.5 µM (aromatase (CYP19)): 5%
inhibition at 100 µM [13]: 8%
IC50 (MDA-MB-231 [5]): > 100 µM
IC50 (MDA-MB-231 [1]): 2 µM

COc1c2occc2c(NCc2ccccc2)c2ccc(=O)oc12 [Vb]
IC50 (MCF-7): 1.09 µM
IC50 (MDA-MB-231 [1]): 3 µM

COc1c2occc2c(NC(=O)c2cccc([N+](=O)[O-])c2)c2ccc(=O)oc12 [3f, N-(9-Methoxy-7-oxo-7H-furo[3,2-g]chromen-4-yl)-3-nitrobenzamide]
DPPH %Inh [11]: 1%
XXO %Inh [12]: 33%
IC50 (T47-D; [14]): 49.8 ± 0.5 µM
Selectivity Index (SI) (T47-D): 1.6
melting point: 267 to 268 °C
inhibition at 12.5 µM (aromatase (CYP19)): 4%
inhibition at 100 µM [13]: 7%
IC50 (MDA-MB-231 [5]): 71 ± 2.34 µM
IC50 at 48 h [7]: 77.3 ± 3.52 µM

COc1cccc2c1C(=O)c1c(O)c3c(c(O)c1C2=O)C[C@@](O)(C(=O)CO)C[C@@H]3O[C@H]1C[C@H](N)[C@H](O)[C@H](C)O1 [Doxorubicin, reference compound]
IC50 (T47-D; [14]): 1.46 ± 2.79 µM
Selectivity Index (SI) (T47-D): 2.1
IC50 (MDA-MB-231 [5]): 3.16 ± 0.26 µM
IC50 at 48 h [7]: 3.07 ± 0.22 µM

C=CCNc1c2ccoc2c(OC)c2oc(=O)ccc12 [Va]
IC50 (MCF-7): 3.87 µM
IC50 (MDA-MB-231 [1]): 5 µM

CC(C)=CCOc1c2ccoc2cc2oc(=O)ccc12 [isoimperatorin]
IC50 [9]: 54.3 µM

O=c1ccc2cc3ccoc3cc2o1 [psoralen]
IC50 [9]: 24.1 µM

O=c1ccc2ccc3occc3c2o1 [angelicin]
IC50 [9]: 11 µM
